Assay results: patent publication US6338963B1, “Use of carbon monoxide dependent guanylyl cyclase modifiers to stimulate neuritogenesis” (NeoTherapeutics, Inc., priority 1994, dated 2002)

What was measured:
NGF [1] = assay: NGF release from rat cultured astrocytes (ELISA); format: cell-based; conditions: for release of NGF from astrocytes: exposure for 24 hours
Method: The dose response for AIT-082 and guanosine on nerve growth factor and S100β protein release from rat culture astrocytes is shown in FIG. 30. NGF was assayed by a double-site ELISA, using a monoclonal anti-NGF antibody, coupled or not to β-galactosidase according to the method of I. D. Laviada et al., “Phosphatidylcholine-Phospholipase C Mediates the Induction of Nerve Growth Factor in Cultured Glial Cells,” FEBS Lett. 364: 301-304 (1995).
The NGF and S100β protein were measured by removing the cultured medium for the ELISA assays at each indicated time point.
NGF and TGFβ2 levels were assayed in the culture medium of the astrocytes by specific ELISA assays using kits from Roche (Germany) and Promega (USA) respectively. NGF basal levels were 56.3±3.2 pg/ml. TGFβ2 levels were 9.1±0.06 pg/ml.
In FIG. 61, the dose-response curves of NGF and TGFβ2 release from rat cultured astrocytes as the result of exposure to AIT-082 are shown.

NGF mRNA = assay: Northern/slot blot of neurotrophin mRNA from astrocytes: NGF; format: cell-based, NIH Swiss mice; set-up: key to NGF mRNA: The conditions which produced a detectable amount of each of the neurotrophin mRNAs are indicated by a “+”; a “++” indicating that at least twice the detectable amount was present; Those blots which were negative are indicated by a “−”; conditions: for NGF mRNA: 24 hours
Method: Induction of neurotrophin mRNA was determined by northern blot analysis of astrocytes cultured with AIT-082, NGF, or both. The cells were harvested and RNA extracted at 24 hours after treatment.
More particularly, astrocytes from the cerebral cortex of NIH Swiss mice (Harlan) were isolated. Briefly, newborn pups (0-24 hours) were decapitated. Their brains were removed under aseptic conditions and were placed in modified Dulbecco's medium (DMEM) containing 20% heat-inactivated horse serum (Hyclone) (“complete medium”). The neopallium was then dissected from each cerebral hemisphere and minced into 1 mm cubes.
The astrocytes were then isolated by mechanical dissociation. The cubes were vortexed at maximum speed for one minute. The cell suspension was then passed first through 75 mm Nitex then through 10 mm Nitex. The resulting cell suspension was diluted in complete medium to a final concentration of one brain per 10 ml of complete medium. Ten milliliters of the diluted cell suspension was added to each 100 mm Falcon tissue culture plate (Fisher). After 3 days the medium was replaced with 10 ml fresh complete medium and subsequently was replaced twice weekly with DMEM containing 10% heat inactivated horse serum (“growth medium”). After two weeks in culture the astrocytes formed a confluent monolayer.
For RNA extraction, astrocytes were trypsinized. The astrocytes were then replated onto 100 mm PORN coated plates at a cell density of 10^6 cells per plate (10 ml growth medium). After 2 hrs PBS, guanosine (Guo), or GTP at 10 mM were added to the appropriate plates. Total RNA was harvested from 1.5×10^7 cells for each treatment, 4 and 24 hrs after treatment using TRIzol reagent and supplier protocol (GIBCO BRL/Life Technologies, Inc.). For slot blots, total RNA was bound to Hybond-N filters (Amersham/United States Biochemicals) as described in Transfer and Immobilization of Nucleic Acids and Proteins to S & S Solid Supports (S and S Protocols: Schleicher & Schuell, New Hampshire, USA). Northern blots were also performed using […] total RNA from each sample. These were electrophoresed in 1% agarose gels containing formaldehyde and blotted onto Hybond-N filters according to S and S protocols.
The blots were probed with ^32P-labeled cDNA (NGF, NT-3 and BDNF probes) or oligonucleotide probe (FGF-2) by hybridization in Piperazine-N,N′-bis-(2-ethanesulfonic acid) (PIPES) buffer (50 mM PIPES, pH 6.8; 50 mM NaH2PO4; 0.1 M NaCl; 5% SDS and 1 mM EDTA) overnight at 50° C. […] Various concentrations ([…] of total RNA), as determined by spectrophotometry, of each sample were blotted and probed so that quantification could be done after insuring a linear film response. Quantification was performed using MCID Image Analysis (St. Catherine's, Ontario, Canada). […]

NGF [2] = assay: Western blot of astrocyte cytosolic proteins: NGF; format: cell-based, rat
Method: Western blot analysis of cytosolic proteins from cultured astrocytes was performed to detect the factors NGF and TGFβ2. The results are shown in FIG. 58A for NGF at 6 and 12 hours and in FIG. 58B for TGFβ2 at 6 and 12 hours.
Western blot analysis of cytosolic proteins deriving from cultured astrocytes treated for 6 or 12 hours with 100 μM AIT-082 was performed. AIT-082 is able to promote the production of neurotrophic factors from rat cultured astrocytes as measured by Western blot analysis. The results are shown in FIG. 62A for NGF and in FIG. 62B for TGFβ2. Electrophoresis was performed in 12% (for NBF) or 15% (for TGFβ2) SDS-PAGE (20 μg of total protein per lane). The separated proteins were transferred onto a PVDF membrane (Bio-Rad Laboratories, Italy).

SMILES	time after exposure at which release of NGF was enhanced (NGF [1]; AIT-082 100 μM) [h]	time of maximum release of NGF (NGF [1]; AIT-082 100 μM) [h]	release of NGF from astrocytes (NGF [1])	increase of NGF production as compared to a control (NGF [1]; rat cultured astrocytes)	NGF mRNA (NGF mRNA; AIT-082 100 mM)	NGF mRNA (NGF mRNA; AIT-082 + NGF (40 ng/ml))	intracellular levels of NGF (NGF [2]; 100 μM AIT-082, 6 or 12 hours)	NGF mRNA in astrocytes (NGF mRNA; guanosine, 4 hours after addition)	intracellular content of NGF (NGF [2]; guanosine, 6 and 12 hours)
O=C(CCn1cnc2c(=O)[nH]cnc21)Nc1ccc(C(=O)O)cc1 [AIT-082, N-4-carboxyphenyl-3-(6-oxohydropurin-9-yl)propanamide]	12	24	dose-dependent increase	about 2.5 fold	++	+	increased in time-dependent manner		
Nc1nc2c(ncn2[C@@H]2O[C@H](CO)[C@@H](O)[C@H]2O)c(=O)[nH]1 [guanosine]			dose-dependent increase					increased	increased the intracellular content of NGF and TGFβ2 in time-dependent fashion
